Values quoted from earlier work as cited in paper PMC11665553, “12-Lipoxygenase inhibition delays onset of autoimmune diabetes in human gene replacement mice” (JCI Insight, 2024).

Legend:
[1] = parameters: method as in PMID 28842399; settings: cited from earlier work
NOD mice = system: NOD mice; parameters: method as in PMID 28842399; settings: cited from earlier work

SMILES | Off-target cytotoxicity [1] | Effect in NOD mice (NOD mice)
CC(=O)NC(c1cccs1)c1cc(Br)c2cccnc2c1O (centres unmarked) [ML127] | evidence of off-target cytotoxicity | –
CNc1oc(-c2cccc3ccccc23)nc1C#N [ML351] | – | reductions in insulitis and improvements in glucose homeostasis
